Laboratory results from ChEMBL document CHEMBL1138976, “Anti-HIV activity of stilbene-related heterocyclic compounds” (Bioorg Med Chem Lett, 2006).
pIC50: −log10 of the molar value. Calls of active or inactive are those of the source. The calls are words filed in the database; no cut-off is given here.

Legend:
[1] = target: Nuclear factor NF-kappa-B complex (Homo sapiens) (UniProt Q00653+P19838+Q04206); test: Inhibition of TNFalpha activated NF-kappaB mediated transactivation of HIV-1 LTR Luc in 5.1 cells at 100 uM; format: functional, cell-based
Nuclear factor NF-kappa-B complex (Homo sapiens), sequence (P19838 whole entry, looked up): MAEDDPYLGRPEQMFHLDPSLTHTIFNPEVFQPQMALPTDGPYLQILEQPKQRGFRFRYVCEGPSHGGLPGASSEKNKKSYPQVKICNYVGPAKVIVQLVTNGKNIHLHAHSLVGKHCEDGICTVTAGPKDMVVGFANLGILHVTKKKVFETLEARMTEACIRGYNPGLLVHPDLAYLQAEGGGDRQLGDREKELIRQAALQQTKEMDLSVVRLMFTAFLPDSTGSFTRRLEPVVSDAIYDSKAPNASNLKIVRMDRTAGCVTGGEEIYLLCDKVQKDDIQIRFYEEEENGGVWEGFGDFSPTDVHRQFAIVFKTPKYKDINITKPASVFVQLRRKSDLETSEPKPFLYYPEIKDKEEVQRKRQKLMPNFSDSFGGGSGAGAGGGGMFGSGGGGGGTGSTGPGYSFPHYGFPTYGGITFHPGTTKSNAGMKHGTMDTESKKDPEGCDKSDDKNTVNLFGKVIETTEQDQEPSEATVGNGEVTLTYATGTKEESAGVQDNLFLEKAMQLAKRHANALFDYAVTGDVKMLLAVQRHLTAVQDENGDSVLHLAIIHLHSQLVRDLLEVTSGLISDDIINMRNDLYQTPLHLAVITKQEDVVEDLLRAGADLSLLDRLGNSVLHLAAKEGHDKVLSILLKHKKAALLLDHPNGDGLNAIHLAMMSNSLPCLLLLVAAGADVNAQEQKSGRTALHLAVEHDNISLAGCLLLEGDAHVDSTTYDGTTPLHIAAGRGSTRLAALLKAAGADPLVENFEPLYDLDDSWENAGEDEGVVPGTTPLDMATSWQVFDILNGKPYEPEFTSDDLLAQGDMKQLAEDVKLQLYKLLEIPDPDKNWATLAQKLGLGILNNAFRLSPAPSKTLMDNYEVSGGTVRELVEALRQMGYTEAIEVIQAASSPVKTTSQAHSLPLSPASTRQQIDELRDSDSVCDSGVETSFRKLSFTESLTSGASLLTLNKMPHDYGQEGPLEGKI
Nuclear factor NF-kappa-B complex (Homo sapiens), sequence (Q00653 whole entry, looked up): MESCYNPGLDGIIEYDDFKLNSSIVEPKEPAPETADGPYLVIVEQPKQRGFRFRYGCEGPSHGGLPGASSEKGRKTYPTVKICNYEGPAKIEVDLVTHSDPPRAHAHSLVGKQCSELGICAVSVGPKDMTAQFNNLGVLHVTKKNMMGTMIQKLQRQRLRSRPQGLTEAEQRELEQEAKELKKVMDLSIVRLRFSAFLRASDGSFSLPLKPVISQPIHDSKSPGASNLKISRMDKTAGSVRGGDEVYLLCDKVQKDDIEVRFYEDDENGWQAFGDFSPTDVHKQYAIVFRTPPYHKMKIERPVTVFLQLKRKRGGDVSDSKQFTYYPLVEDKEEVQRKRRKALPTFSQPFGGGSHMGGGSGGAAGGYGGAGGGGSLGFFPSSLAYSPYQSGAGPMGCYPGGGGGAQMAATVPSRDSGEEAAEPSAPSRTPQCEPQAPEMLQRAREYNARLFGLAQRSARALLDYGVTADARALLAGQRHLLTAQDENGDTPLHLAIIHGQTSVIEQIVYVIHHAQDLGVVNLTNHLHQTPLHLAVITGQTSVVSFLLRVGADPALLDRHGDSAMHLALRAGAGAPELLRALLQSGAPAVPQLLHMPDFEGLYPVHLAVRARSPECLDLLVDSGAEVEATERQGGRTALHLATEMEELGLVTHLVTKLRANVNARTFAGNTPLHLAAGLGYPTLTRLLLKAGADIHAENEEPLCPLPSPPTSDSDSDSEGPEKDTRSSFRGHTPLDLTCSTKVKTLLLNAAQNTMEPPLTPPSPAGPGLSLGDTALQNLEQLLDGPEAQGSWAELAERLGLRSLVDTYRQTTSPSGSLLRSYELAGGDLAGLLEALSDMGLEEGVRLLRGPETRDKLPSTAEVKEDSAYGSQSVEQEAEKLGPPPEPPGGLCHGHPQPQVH
Nuclear factor NF-kappa-B complex (Homo sapiens), sequence (Q04206 whole entry, looked up): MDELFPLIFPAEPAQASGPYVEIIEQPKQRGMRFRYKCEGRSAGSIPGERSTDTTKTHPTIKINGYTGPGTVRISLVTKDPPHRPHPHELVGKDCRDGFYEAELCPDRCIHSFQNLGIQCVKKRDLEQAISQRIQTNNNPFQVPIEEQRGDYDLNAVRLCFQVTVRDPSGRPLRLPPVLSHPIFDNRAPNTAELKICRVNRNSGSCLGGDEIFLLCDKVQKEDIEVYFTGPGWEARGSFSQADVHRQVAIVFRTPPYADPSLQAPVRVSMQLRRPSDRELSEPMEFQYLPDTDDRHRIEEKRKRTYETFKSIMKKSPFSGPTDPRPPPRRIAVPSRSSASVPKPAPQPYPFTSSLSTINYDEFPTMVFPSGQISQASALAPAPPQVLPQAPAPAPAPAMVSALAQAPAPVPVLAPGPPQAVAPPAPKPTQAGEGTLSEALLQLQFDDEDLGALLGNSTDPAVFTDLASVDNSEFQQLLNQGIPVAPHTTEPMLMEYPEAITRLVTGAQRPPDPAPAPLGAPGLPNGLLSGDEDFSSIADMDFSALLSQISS

[2] = target: T1, Protein Tat (Human immunodeficiency virus type 1 group M subtype B (isolate PCV12)(HIV-1)) (UniProt P04326); test: Inhibition of Tat activity in HeLa cells transfected with Tat-Luc at 100 uM; format: functional, cell-based
T1 sequence (whole entry): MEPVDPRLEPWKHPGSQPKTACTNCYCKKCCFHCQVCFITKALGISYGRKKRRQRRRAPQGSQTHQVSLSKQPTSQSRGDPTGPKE

[3] = test system: Human immunodeficiency virus; test: Inhibition of HIV replication by recombinant virus assay; format: functional, organism-based
[4] = test system: Human immunodeficiency virus; test: Specificity against NF-kappaB and Tat proteins assessed by activity in Hela Tet-ON assay; format: functional
[5] = Cytotoxicity by Propidium Iodide staining
[6] = test system: Human immunodeficiency virus; test: Ratio of cytotoxic activity to anti HIV activity; format: functional

SMILES	inhibition [1]	inhibition [2]	pIC50 ([3]; Human immunodeficiency virus 1)	Activity [4]	CC50 [5]	Ratio CC50/IC50 [6]	pIC50 [3]
O=C1O/C(=C\c2cccc3ccccc23)c2ccccc21	< 0%	6.5%	< 4.30	–	–	–	–
C=CCn1nc(Cc2ccc(OC)cc2)c2ccccc2c1=O	50%	2.9%	4.52	inactive	68.6 µM	2.3	–
Oc1nnc(Cc2ccc(Cl)cc2Cl)c2ccccc12	99%	53.9%	4.02	inactive	58 µM	0.6	–
COc1cc(Cc2nnc(O)c3ccccc23)cc(OC)c1OC	96.5%	< 0%	4.29	inactive	135 µM	2.6	–
Cn1nc(Cc2ccccc2)c2ccccc2c1=O	19.4%	11.4%	4.32	–	> 156 µM	>3.3	–
Cn1nc(Cc2ccc(Cl)cc2Cl)c2ccccc2c1=O	< 0%	14%	4.73	–	112 µM	6	–
Cc1ccc2c(c1)/C(=C/c1ccc(Cl)cc1)OC2=O	96.8%	91.8%	4.80	Active	–	–	–
CSc1ccc(CC2(O)c3ccccc3C3=NCCCN32)cc1 (centres undefined)	99.8%	13.9%	4.21	inactive	142 µM	2.3	–
Cn1nc(Cc2cccc3ccccc23)c2ccccc2c1=O	100%	43.2%	4.96	Active	62.9 µM	5.7	–
COc1ccc(/C=C2\OC(=O)c3ccccc32)cc1	87.6%	74%	4.84	Active	–	–	–
O=c1c2ccccc2c(Cc2ccc(Cl)cc2)nn1-c1ccccc1	86.4%	< 0%	4.23	inactive	67.7 µM	1.2	–
Cc1ccc2c(c1)/C(=C/c1ccccc1Cl)OC2=O	71%	< 0%	–	inactive	> 185 µM	>1.4	3.88
O=C1O/C(=C\c2ccc(Cl)cc2)c2c1cccc2[N+](=O)[O-]	< 0%	63.7%	3.92	Active	< 20.7 µM	<0.2	–
CCCCn1nc(Cc2ccc(OC)c(OC)c2)c2ccccc2c1=O	83%	6.7%	4.80	Active	70.3 µM	4.4	–
O=c1c2ccccc2c(Cc2ccc(Cl)cc2)nn1-c1ccc(Br)cc1	< 0%	< 0%	4.06	–	91.8 µM	1	–
Oc1nnc(Cc2ccccc2Cl)c2cc(Cl)c(Cl)cc12	65.9%	11.2%	4.66	inactive	> 147 µM	>6.7	–
OC1(Cc2ccccc2Cl)c2cc(Cl)c(Cl)cc2C2=NCCN21 (centres undefined)	100%	99.6%	4.64	Active	30.1 µM	1.3	–

SMILES	inhibition [1]	inhibition [2]	pIC50 ([3]; Human immunodeficiency virus 1)	Activity [4]	CC50 [5]	Ratio CC50/IC50 [6]	pIC50 [3]
O=C1O/C(=C\c2ccc(Cl)cc2)c2cc(Cl)c(Cl)cc21	3.2%	< 0%	4.34	–	> 154 µM	>3.4	–
Oc1nnc(Cc2ccccc2Cl)c2ccccc12	67.3%	29.8%	4.38	inactive	> 185 µM	>4.5	–
O=C1O/C(=C\c2ccc3c(c2)OCO3)c2ccccc21	91.8%	87.2%	4.91	Active	138 µM	11.3	–
CC(C)(C)n1nc(Cc2ccc(Cl)cc2)c2ccccc2c1=O	82.1%	11.5%	4.89	inactive	72.1 µM	5.6	–
COc1ccc(Cc2nnc(O)c3ccccc23)cc1	12.6%	< 0%	4.80	–	> 149 µM	>9.5	–
O=C1O/C(=C\c2ccccc2Cl)c2ccccc21 (stereo in doubt; 1b)	< 0%	76.8%	–	inactive	> 195 µM	>8	4.61
CSc1ccc(/C=C2\OC(=O)c3ccccc32)cc1	86.7%	89.7%	4.63	Active	> 187 µM	>8	–
COc1ccc(CC2(O)c3cc(Cl)c(Cl)cc3C3=NCCN32)cc1 (centres undefined)	100%	75.3%	4.56	inactive	44.1 µM	1.6	–
Oc1nnc(Cc2ccc(Cl)c(Cl)c2)c2cc(Cl)c(Cl)cc12	14.9%	28.4%	4.71	–	64.7 µM	3.3	–
Cn1nc(Cc2ccc3ccccc3c2)c2ccccc2c1=O	99.9%	11.8%	4.78	Active	57.2 µM	3.5	–
COc1ccc(CC2(O)c3ccccc3C3=NCCCN32)cc1 (centres undefined)	< 0%	3.8%	4.13	–	> 162 µM	>2.2	–
O=C1O/C(=C\c2ccc(Cl)cc2)c2ccccc21	84.8%	84.6%	4.62	Active	> 195 µM	>8.2	–
CCn1nc(Cc2ccc(OC)cc2)c2ccccc2c1=O	93.5%	14.2%	4.65	inactive	89.5 µM	4	–
OC1(Cc2ccccc2Cl)c2ccccc2C2=NCCCN21 (centres undefined)	99.7%	< 0%	4.18	inactive	78.6 µM	1.2	–
Cn1nc(Cc2ccccc2Cl)c2ccccc2c1=O	73%	18.3%	4.67	inactive	> 176 µM	>8.2	–
OC1(Cc2ccc(Cl)c(Cl)c2)c2ccccc2C2=NCCCN21 (centres undefined)	67.7%	60%	4.58	inactive	85.2 µM	3.3	–
OC1(Cc2ccc(Cl)cc2)c2ccccc2C2=NCCN21 (centres undefined)	< 0%	38.4%	4.15	inactive	> 168 µM	–	–
